According to patent US7709478B2, “Acylated 6,7,8,9-tetrahydro-5H-benzocycloheptenyl amines and their use as pharmaceutical agents” (sanofi-aventis Deutschland GmbH, priority 2001, dated 2010):
Structures can show the parent of a compound that is named as a salt.

Tested on: eNOS promoter
Assay: Activation of eNOS transcription (eNOS promoter-luciferase reporter gene assay)
Assay type: cell-based, human
Settings: 18 h incubation; for EC50: EC50 of transcription induction ratio vs compound concentration, determined graphically, human endothelial cell line stably transfected with eNOS promoter-luciferase construct; for maximal fold induction / TIR(max): maximum transcription induction ratio (luciferase activity with compound / solvent alone), human endothelial cell line with eNOS promoter-luciferase construct; for maximal fold induction: read-out: TIR(max)
Description: Measurement of Activation of eNOS Transcription
Activation of eNOS transcription was measured as described in detail in Li et al. “Activation of protein kinase C alpha and/or epsilon enhances transcription of the human endothelial nitric oxide synthase gene”, Mol. Pharmacol. 1998; 53: 630-637.
Briefly, a 3.5 kB long fragment 5′ of the starting codon of the eNOS gene was cloned, sequenced and cloned in firefly luciferase expression plasmids to monitor activation of the eNOS promoter by reporter gene activity. A human endothelial cell line stable transfected and expressing this promoter-reporter construct was used for compound testing. Cells were incubated for 18 h with compounds.
All compounds were dissolved in sterile DMSO. A final concentration of 0.5% DMSO in complete medium was allowed. Induction of reporter gene expression in these cells was measured using a standard luciferase assay system (Promega, Cat. No E150) according to the manufacturer's instructions. Luciferase induction in cells incubated with compounds were compared to those incubated with solvent alone. The ratio of both activities (transcription induction ratio, TIR) was plotted as a function of compound concentration. Typically, TIR values started at low concentrations at a ratio of 1, indicating no compound effect, and extended up to a maximum TIR value TIR(max) which indicates the increase of the eNOS transcription. EC50 values of transcription induction ratios as a function of compound concentration were determined graphically.

| SMILES | EC50 [nM] | maximal fold induction | TIR(max) |
| --- | --- | --- | --- |
| CNc1cncc(C(=O)N[C@H]2CCCc3ccccc3C2)n1 [Compound 116, (S)-6-METHYLAMINO-PYRAZINE-2-CARBOXYLIC ACID (6,7,8,9-TETRAHYDRO-5H-BENZOCYCLOHEPTEN-6-YL)-AMIDE] | 150 | 2.9 | – |
| CNc1cncc(C(=O)NC2CCCc3ccccc3C2)n1 (stereo not shown) [Compound 76, 6-METHYLAMINO-PYRAZINE-2-CARBOXYLIC ACID (6,7,8,9-TETRAHYDRO-5H-BENZOCYCLOHEPTEN-6-YL)-AMIDE] | 572 | 3.1 | – |
| CCSc1ncc(C(=O)NC2CCCc3ccccc3C2)c(N)n1 (stereo not shown) [Compound 74, 4-AMINO-2-ETHYLSULFANYL-PYRIMIDINE-5-CARBOXYLIC ACID (6,7,8,9-TETRAHYDRO-5H-BENZOCYCLOHEPTEN-6-YL)-AMIDE] | 34000 | 3.1 | – |
| Cc1ccc(C(=O)NC2CCCc3ccccc3C2)c(O)n1 (stereo not shown) [Compound 11, 2-HYDROXY-6-METHYL-N-(6,7,8,9-TETRAHYDRO-5H-BENZOCYCLOHEPTEN-6-YL)-NICOTINAMIDE] | 2100 | 2 | – |
| O=C(NC1CCCc2ccccc2C1)c1cccc(N2CCOCC2)c1 (stereo not shown) [Compound 108, 3-MORPHOLIN-4-YL-N-(6,7,8,9-TETRAHYDRO-5H-BENZOCYCLOHEPTEN-6-YL)-BENZAMIDE] | 14000 | 3.1 | – |
| Cc1cnc(C(=O)NC2CCCc3ccccc3C2)cn1 (single isomer, unassigned) [Compound 33, 5-METHYL-PYRAZINE-2-CARBOXYLIC ACID (6,7,8,9-TETRAHYDRO-5H-BENZOCYCLOHEPTEN-6-YL)-AMIDE] | 3300 | – | 2.6 |
| COc1ccc(C(=O)N[C@H]2CCCc3ccccc3C2)cn1 [Compound 130, (S)-6-METHOXY-N-(6,7,8,9-TETRAHYDRO-5H-BENZOCYCLOHEPTEN-6-YL)-NICOTINAMIDE] | 110 | 3.1 | – |
| Nc1ncccc1C(=O)NC1CCCc2ccccc2C1 (single isomer, unassigned) [Compound 24, 2-AMINO-N-(6,7,8,9-TETRAHYDRO-5H-BENZOCYCLOHEPTEN-6-YL)-NICOTINAMIDE] | 30 | 3.1 | – |
| Nc1cccnc1C(=O)NC1CCCc2ccccc2C1 (stereo not shown) [Compound 144, 3-AMINO-PYRIDINE-2-CARBOXYLIC ACID (6,7,8,9-TETRAHYDRO-5H-BENZOCYCLOHEPTEN-6-YL)-AMIDE] | 10 | 2.9 | – |
| Cc1nc2cc(C(=O)N[C@H]3CCCc4ccccc4C3)ccc2[nH]1 [Compound 36, (S)-2-METHYL-1H-BENZOIMIDAZOLE-5-CARBOXYLIC ACID (6,7,8,9-TETRAHYDRO-5H-BENZOCYCLOHEPTEN-6-YL)-AMIDE HYDROCHLORIDE] | 50 | 3.3 | – |
| O=C(NC1CCCc2ccccc2C1)c1ccnc(N2CCCC2)c1 (single isomer, unassigned; (+)) [Compound 149, (+)-2-PYRROLIDIN-1-YL-N-(6,7,8,9-TETRAHYDRO-5H-BENZOCYCLOHEPTEN-6-YL)-ISONICOTINAMIDE] | 3400 | 3 | – |
| O=C(NC1CCCc2ccccc2C1)c1ccc(F)cc1Cl (stereo not shown) [Compound 4, 2-CHLORO-4-FLUORO-N-(6,7,8,9-TETRAHYDRO-5H-BENZOCYCLOHEPTEN-6-YL)-BENZAMIDE] | < 80 | 2.8 | – |
| O=C(NC1CCCc2ccccc2C1)c1cnc(N2CCOCC2)nc1 (stereo not shown) [Compound 64, 2-MORPHOLIN-4-YL-PYRIMIDINE-5-CARBOXYLIC ACID (6,7,8,9-TETRAHYDRO-5H-BENZOCYCLOHEPTEN-6-YL)-AMIDE] | 16000 | 3.1 | – |
| Cc1c(C(=O)NC2CCCc3ccccc3C2)cnn1-c1ccccc1 (single isomer, unassigned) [Compound 31, 5-METHYL-1-PHENYL-1H-PYRAZOLE-4-CARBOXYLIC ACID (6,7,8,9-TETRAHYDRO-5H-BENZOCYCLOHEPTEN-6-YL)-AMIDE] | 5000 | 2.8 | – |
| Cc1nc(N(C)C)sc1C(=O)N[C@H]1CCCc2ccccc2C1 [Compound 129, (S)-2-DIMETHYLAMINO-4-METHYL-THIAZOLE-5-CARBOXYLIC ACID (6,7,8,9-TETRAHYDRO-5H-BENZOCYCLOHEPTEN-6-YL)-AMIDE] | 100 | 3.1 | – |

Further compounds by falling EC50, results first:

| EC50 [nM] | SMILES | maximal fold induction | TIR(max) |
| --- | --- | --- | --- |
| 15000 | O=C(NC1CCCc2ccccc2C1)c1cn2ccccc2n1 (stereo not shown) [Compound 85, IMIDAZO[1,2-A]PYRIDINE-2-CARBOXYLIC ACID (6,7,8,9-TETRAHYDRO-5H-BENZOCYCLOHEPTEN-6-YL)-AMIDE] | 3 | – |
| 10000 | NS(=O)(=O)c1cc(C(=O)NC2CCCc3ccccc3C2)ccc1Cl (stereo not shown) [Compound 138, 4-CHLORO-3-SULFAMOYL-N-(6,7,8,9-TETRAHYDRO-5H-BENZOCYCLOHEPTEN-6-YL)-BENZAMIDE] | 3 | – |
| 4900 | CN1CC(=O)Nc2cc(C(=O)NC3CCCc4ccccc4C3)ccc21 (stereo not shown) [Compound 127, 1-METHYL-3-OXO-1,2,3,4-TETRAHYDRO-QUINOXALINE-6-CARBOXYLIC ACID (6,7,8,9-TETRAHYDRO-5H-BENZOCYCLOHEPTEN-6-YL)-AMIDE] | 2.7 | – |
| 4800 | O=C(NC1CCCc2ccccc2C1)c1cccc(N2CCCCC2)c1 (stereo not shown) [Compound 106, 3-PIPERIDIN-1-YL-N-(6,7,8,9-TETRAHYDRO-5H-BENZOCYCLOHEPTEN-6-YL)-BENZAMIDE] | 2.5 | – |
| 2800 | Cc1c(NS(C)(=O)=O)cccc1C(=O)NC1CCCc2ccccc2C1 (stereo not shown) [Compound 99, 3-METHANESULFONYLAMINO-2-METHYL-N-(6,7,8,9-TETRAHYDRO-5H-BENZOCYCLOHEPTEN-6-YL)-BENZAMIDE] | 2.5 | – |
| 1800 | Cc1ncsc1C(=O)NC1CCCc2ccccc2C1 (stereo not shown) [Compound 109, 4-METHYL-THIAZOLE-5-CARBOXYLIC ACID (6,7,8,9-TETRAHYDRO-5H-BENZOCYCLOHEPTEN-6-YL)-AMIDE] | 2.8 | – |
| 1800 | Cc1cc(C(=O)NC2CCCc3ccccc3C2)c(C)[nH]1 (single isomer, unassigned; (-)) [Compound 50, (−)-2,5-DIMETHYL-1H-PYRROLE-3-CARBOXYLIC ACID (6,7,8,9-TETRAHYDRO-5H-BENZOCYCLOHEPTEN-6-YL)-AMIDE] | – | 3 |
| 496 | Cc1nc(C(F)(F)F)ccc1C(=O)NC1CCCc2ccccc2C1 (single isomer, unassigned) [Compound 39, 2-METHYL-N-(6,7,8,9-TETRAHYDRO-5H-BENZOCYCLOHEPTEN-6-YL)-6-TRIFLUOROMETHYL-NICOTINAMIDE] | 2.9 | – |
| 283 | O=C(NC1CCCc2ccccc2C1)c1ccc(C(F)(F)F)nc1 (single isomer, unassigned) [Compound 37, N-(6,7,8,9-TETRAHYDRO-5H-BENZOCYCLOHEPTEN-6-YL)-6-TRIFLUOROMETHYL-NICOTINAMIDE] | 2.9 | – |
| 140 | O=C(N[C@H]1CCCc2ccccc2C1)c1ccc(N2CCCC2)nc1 [Compound 118, (S)-6-PYRROLIDIN-1-YL-N-(6,7,8,9-TETRAHYDRO-5H-BENZOCYCLOHEPTEN-6-YL)-NICOTINAMIDE] | 3 | – |
| 128 | COCc1ccc(C(=O)N[C@H]2CCCc3ccccc3C2)cn1 [Compound 133, (S)-6-METHOXYMETHYL-N-(6,7,8,9-TETRAHYDRO-5H-BENZOCYCLOHEPTEN-6-YL)-NICOTINAMIDE] | 3.1 | – |
| 80 | CN(C)c1cccc(C(=O)NC2CCCc3ccccc3C2)c1 (single isomer, unassigned) [Compound 43, 3-DIMETHYLAMINO-N-(6,7,8,9-TETRAHYDRO-5H-BENZOCYCLOHEPTEN-6-YL)-BENZAMIDE] | 3.2 | – |
| 53 | CN(C)c1ccc(C(=O)NC2CCCc3ccccc3C2)cn1 (stereo not shown) [Compound 81, 6-DIMETHYLAMINO-N-(6,7,8,9-TETRAHYDRO-5H-BENZOCYCLOHEPTEN-6-YL)-NICOTINAMIDE] | 3.3 | – |
| 50 | O=C(N[C@H]1CCCc2ccccc2C1)c1cccc(N2CCCC2)c1 [Compound 132, (S)-3-PYRROLIDIN-1-YL-N-(6,7,8,9-TETRAHYDRO-5H-BENZOCYCLOHEPTEN-6-YL)-BENZAMIDE] | 3.1 | – |
| 41 | Cc1nc(C2CC2)sc1C(=O)N[C@H]1CCCc2ccccc2C1 [Compound 120, (S)-2-CYCLOPROPYL-4-METHYL-THIAZOLE-5-CARBOXYLIC ACID (6,7,8,9-TETRAHYDRO-5H-BENZOCYCLOHEPTEN-6-YL)-AMIDE] | 3.1 | – |
| 38 | Cc1ccc(C(=O)NC2CCCc3ccccc3C2)c(Cl)n1 (stereo not shown) [Compound 16, 2-CHLORO-6-METHYL-N-(6,7,8,9-TETRAHYDRO-5H-BENZOCYCLOHEPTEN-6-YL)-NICOTINAMIDE] | 2.9 | – |
| 20 | Cc1nc(N)c(C(=O)N[C@H]2CCCc3ccccc3C2)nc1C [Compound 115, (S)-3-AMINO-5,6-DIMETHYL-PYRAZINE-2-CARBOXYLIC ACID (6,7,8,9-TETRAHYDRO-5H-BENZOCYCLOHEPTEN-6-YL)-AMIDE] | 3 | – |
